Ends that are not written are not given here.
Biological target: T1, human GLP-2R (Homo sapiens, UniProt O95838)
T1 construct: The full-length cDNA of human GLP-2R was synthesized, cloned, and inserted into the pLU.cmv.Zeo vector; expressed in transfected cells
T1 sequence (O95838 1-553): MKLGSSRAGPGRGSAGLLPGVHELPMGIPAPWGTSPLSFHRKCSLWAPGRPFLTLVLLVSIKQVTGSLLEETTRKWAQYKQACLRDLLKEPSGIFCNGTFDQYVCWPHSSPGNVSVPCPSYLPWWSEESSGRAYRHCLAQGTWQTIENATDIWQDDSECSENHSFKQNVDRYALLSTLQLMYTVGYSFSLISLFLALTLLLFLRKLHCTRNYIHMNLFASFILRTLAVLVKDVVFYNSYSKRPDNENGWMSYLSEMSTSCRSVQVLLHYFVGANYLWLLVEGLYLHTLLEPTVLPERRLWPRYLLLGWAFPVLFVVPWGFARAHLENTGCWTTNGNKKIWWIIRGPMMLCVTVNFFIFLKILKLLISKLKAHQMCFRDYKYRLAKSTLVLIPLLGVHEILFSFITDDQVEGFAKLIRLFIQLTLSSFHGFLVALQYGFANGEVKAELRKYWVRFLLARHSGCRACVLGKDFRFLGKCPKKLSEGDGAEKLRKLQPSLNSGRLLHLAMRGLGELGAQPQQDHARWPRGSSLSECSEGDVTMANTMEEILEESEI
Assay: Cell-based reporter gene assay (RGA), HEK293-GLP-2R-Luc, CRE-luciferase
Conditions: diluted to 2.665 µmol/L and further 7-fold for 10 concentration points; HEK293-GLP-2R-Luc cells
Method: To generate a HEK293 cell line stably expressing CRE-driven luciferase and GLP2R, the CRE-miniP.Luc virus-containing cell supernatants were diluted in DMEM in the presence of 8 µg/mL polybrene before being added to HEK293 cells. To obtain a stable cell pool, the medium was replaced 48 h after incubation, with fresh culture medium containing 3 µg/mL puromycin. After about 3 weeks selection, the cell pool was then further infected with pLU.cmv-GLP2R.Zeo virus and selected with 200 µg/mL Zeocin and 3 µg/mL puromycin. […] The expression of GLP-2R was examined using flow cytometry. After that, the positive clones were routinely maintained in selective medium.
Cell-based RGA has been described previously. Briefly, 50 microliters of HEK293-GLP-2R-Luc cells were seeded into a 96-well white plate at a density of 4 × 10^4 cells/well. The cells were then incubated at 37 °C with 5% CO2 overnight (16 to 24 h). […] After 5 h of incubation, 100 µL of britelite plus reporter Gene Assay reagent were added to each well and mixed thoroughly under subdued light conditions for 5 min. The RLU signal was then determined with a SpectraMax M5e multimode plate reader (Molecular Devices, San Jose, CA, USA).
The RGA was validated as described previously. […] Samples of each potency level were tested by two analysts 8 times in total. […] The response of HEK293-GLP2R-Luc cells to these samples were determined as illustrated in 4.6.
The lower/upper asymptote was determined by the ratio of the top asymptote to the bottom asymptote when RGA best fit the 4PL model. The correlation coefficient (R^2), deviations from parallelism, and the regression in the 4PL model were estimated using SoftMax® Pro 7.1 software (Molecular Devices, San Jose, CA, USA). Specifically, a linear regression with an R^2 value no less than 0.98 was considered to have a very good fit. Additionally, a p-value below 0.01 was regarded as statistically significant. […] All the dose-response curves were plotted using GraphPad Prism® software 8.0.2 (GraphPad, Boston, MA, USA).

HGEGTFSSELATILDALAARDFINWLIATKITDKKKKKK-NH2 [glepaglutide]
dose-response curve in RGA: induced sigmoid curves similar to those induced by teduglutide
